Earlier results in patent US9492404B2, “Compositions and methods for treatment of taupathy” (Revalesio Corporation, priority 2010, dated 2016).

System: primary progressive MS
Conditions: 943 patients with primary progressive MS

## Glatiramer acetate
  progression of disability and the disease: failed to halt
